The values that follow come from patent US11180474B2 (BRISTOL-MYERS SQUIBB COMPANY, priority 2016, dated 2021).

The assay deals with T1, human TLR9 (Homo sapiens, UniProt Q9NR96).
T1 construct: host or cells: HEK-Blue cells
T1 sequence (Q9NR96 26-1032): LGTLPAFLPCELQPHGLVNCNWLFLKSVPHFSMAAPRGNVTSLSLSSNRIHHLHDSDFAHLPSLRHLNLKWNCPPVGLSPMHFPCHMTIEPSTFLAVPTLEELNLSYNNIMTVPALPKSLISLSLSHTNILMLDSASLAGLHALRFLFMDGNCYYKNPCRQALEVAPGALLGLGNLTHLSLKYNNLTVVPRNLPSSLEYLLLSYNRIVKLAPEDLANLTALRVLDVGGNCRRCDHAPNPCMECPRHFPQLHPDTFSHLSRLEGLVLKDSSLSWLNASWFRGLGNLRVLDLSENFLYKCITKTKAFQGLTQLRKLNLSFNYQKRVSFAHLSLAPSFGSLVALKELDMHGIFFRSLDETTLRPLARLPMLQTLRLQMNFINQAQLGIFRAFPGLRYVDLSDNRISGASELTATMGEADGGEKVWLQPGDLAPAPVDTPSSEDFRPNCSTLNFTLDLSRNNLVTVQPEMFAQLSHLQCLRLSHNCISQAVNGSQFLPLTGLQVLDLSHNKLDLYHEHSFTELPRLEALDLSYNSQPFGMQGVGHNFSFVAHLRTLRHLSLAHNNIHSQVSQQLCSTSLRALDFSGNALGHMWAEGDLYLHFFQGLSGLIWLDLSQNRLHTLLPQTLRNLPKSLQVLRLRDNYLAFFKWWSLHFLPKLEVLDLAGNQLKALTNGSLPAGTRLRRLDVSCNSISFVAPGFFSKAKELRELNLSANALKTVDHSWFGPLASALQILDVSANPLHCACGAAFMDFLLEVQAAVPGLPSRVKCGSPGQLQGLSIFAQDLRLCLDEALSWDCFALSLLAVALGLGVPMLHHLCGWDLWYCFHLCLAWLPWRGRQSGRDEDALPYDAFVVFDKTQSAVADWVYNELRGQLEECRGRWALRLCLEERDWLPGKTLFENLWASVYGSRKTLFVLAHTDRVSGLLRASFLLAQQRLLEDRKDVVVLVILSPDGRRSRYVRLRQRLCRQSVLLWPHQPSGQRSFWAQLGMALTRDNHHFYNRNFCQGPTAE
Kind of assay: TLR9 inhibition reporter assay (HEK-Blue cells, SEAP reporter, ODN2006 stimulation). Format: cell-based. Conditions: HEK-Blue cells overexpressing human TLR9, ODN2006 5 nM. A digest of the protocol: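 Compound treatment: 30 min, RT, 0.05 nM–50 μM final. Agonist: TLR7 gardiquimod 7.5 μM; TLR8 R848 15.9 μM; TLR9 ODN2006 5 nM. Incubation 22 h, 37 °C, 5% CO2. Readout SEAP, HEK-Blue Detection.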
On the technique in general: In a reporter assay the amount or activity of a reporter protein is the signal.
As to `COc1ccc(-c2[nH]c3ccc(C4CCN(C(=O)CS(C)(=O)=O)CC4)cc3c2CC(F)(F)F)cc1OC` [Example 347, 1-(4-(2-(3,4-dimethoxyphenyl)-3-(2,2,2-trifluoroethyl)-1H-indol-5-yl)piperidin-1-yl)-2-(methylsulfonyl)ethan-1-one], inhibition was half-maximal at 39100 nM (IC50). The figure for `COc1ccc(-c2[nH]c3ccc(C4CCN(C(=O)CCc5cccnc5)CC4)cc3c2CC(F)(F)F)cc1OC` [Example 348, 1-(4-(2-(3,4-dimethoxyphenyl)-3-(2,2,2-trifluoroethyl)-1H-indol-5-yl)piperidin-1-yl)-3-(pyridin-3-yl) propan-1-one] is 15300 nM; for `COc1ccc(-c2[nH]c3ccc(C4CCN(C(=O)COc5cccnc5)CC4)cc3c2CC(F)(F)F)cc1OC` [Example 349, 1-(4-(2-(3,4-dimethoxyphenyl)-3-(2,2,2-trifluoroethyl)-1H-indol-5-yl)piperidin-1-yl)-2-(pyridin-3-yloxy)ethan-1-one] it is 9730 nM. The figure for `COc1ccc(-c2[nH]c3ccc(C4CCN(C(=O)CCC(F)(F)F)CC4)cc3c2CC(F)(F)F)cc1OC` [Example 350, 1-(4-(2-(3,4-dimethoxyphenyl)-3-(2,2,2-trifluoroethyl)-1H-indol-5-yl)piperidin-1-yl)-4,4,4-trifluorobutan-1-one] is at least 50000 nM; for `COc1ccc(-c2[nH]c3ccc(C4CCN(C(=O)CCCN(C)C)CC4)cc3c2CC(F)(F)F)cc1OC` [Example 351, 1-(4-(2-(3,4-dimethoxyphenyl)-3-(2,2,2-trifluoroethyl)-1H-indol-5-yl)piperidin-1-yl)-4-(dimethylamino)butan-1-one] it is 1560 nM; for `COc1ccc(-c2[nH]c3ccc(C4CCN(C(=O)C[C@H](C)O)CC4)cc3c2CC(F)(F)F)cc1OC` [Example 352, (S)-1-(4-(2-(3,4-dimethoxyphenyl)-3-(2,2,2-trifluoroethyl)-1H-indol-5-yl)piperidin-1-yl)-3-hydroxybutan-1-one] it is 28900 nM.

In the case of `COc1ccc(-c2[nH]c3ccc(C4CCN(C(=O)C[C@@H](C)O)CC4)cc3c2CC(F)(F)F)cc1OC` [Example 353, (R)-1-(4-(2-(3,4-dimethoxyphenyl)-3-(2,2,2-trifluoroethyl)-1H-indol-5-yl)piperidin-1-yl)-3-hydroxybutan-1-one], 40000 nM corresponded to half-maximal inhibition (IC50). As to `COc1ccc(-c2[nH]c3ccc(C4CCN(C(=O)CN(C)C)CC4)cc3c2CC(F)(F)F)cc1OC` [Example 354, 1-(4-(2-(3,4-dimethoxyphenyl)-3-(2,2,2-trifluoroethyl)-1H-indol-5-yl)piperidin-1-yl)-2-(dimethylamino)ethan-1-one], the IC50 (in general, the concentration that gives 50% inhibition) was determined as 2150 nM. Against the preceding compound, the IC50 is about 19-fold lower.

As for `COc1ccc(-c2[nH]c3ccc(C4CCN(C)CC4)cc3c2CC(F)(F)F)cc1OC` [Example 355, 2-(3,4-dimethoxyphenyl)-5-(1-methylpiperidin-4-yl)-3-(2,2,2-trifluoroethyl)-1H-indole], the midpoint of inhibition, the IC50, lay at 2280 nM. The figure for `CCNC(=O)N1CCC(c2ccc3[nH]c(-c4ccc(OC)c(OC)c4)c(CC(F)(F)F)c3c2)CC1` [Example 356, 4-(2-(3,4-dimethoxyphenyl)-3-(2,2,2-trifluoroethyl)-1H-indol-5-yl)-N-ethylpiperidine-1-carboxamide] is at least 50000 nM; for `COc1ccc(-c2[nH]c3ccc(C4CCN(C(=O)NCCc5ccccc5)CC4)cc3c2CC(F)(F)F)cc1OC` [Example 357, 4-(2-(3,4-dimethoxyphenyl)-3-(2,2,2-trifluoroethyl)-1H-indol-5-yl)-N-phenethylpiperidine-1-carboxamide] it is at least 50000 nM. The figure for `COc1ccc(-c2[nH]c3ccc(C4CCN(C(=O)NCc5ccco5)CC4)cc3c2CC(F)(F)F)cc1OC` [Example 358, 4-(2-(3,4-dimethoxyphenyl)-3-(2,2,2-trifluoroethyl)-1H-indol-5-yl)-N-(furan-2-ylmethyl)piperidine-1-carboxamide] is at least 50000 nM; for `COc1ccc(-c2[nH]c3ccc(C4CCN(CC(=O)N5CCC(N6CCCCC6)CC5)CC4)cc3c2CC(F)(F)F)cc1OC` [Example 359, 1-([1,4′-bipiperidin]-1′-yl)-2-(4-(2-(3,4-dimethoxyphenyl)-3-(2,2,2-trifluoroethyl)-1H-indol-5-yl)piperidin-1-yl)ethan-1-one] it is 267 nM. For `COc1ccc(-c2[nH]c3ccc(C4CCN(CC(=O)NCCC5CCCN5C)CC4)cc3c2CC(F)(F)F)cc1OC` (stereo not drawn) [Example 360, 2-(4-(2-(3,4-dimethoxyphenyl)-3-(2,2,2-trifluoroethyl)-1H-indol-5-yl)piperidin-1-yl)-N-(2-(1-methylpyrrolidin-2-yl)ethyl) acetamide] the value was 392 nM; for `COc1ccc(-c2[nH]c3ccc(C4CCN(CC(=O)N5CCN(C(C)=O)CC5)CC4)cc3c2CC(F)(F)F)cc1OC` [Example 361, 1-(4-acetylpiperazin-1-yl)-2-(4-(2-(3,4-dimethoxyphenyl)-3-(2,2,2-trifluoroethyl)-1H-indol-5-yl)piperidin-1-yl)ethan-1-one], 2420 nM. Compound `COc1ccc(-c2[nH]c3ccc(C4CCN(CC(=O)N5CCN(C(C)C)CC5)CC4)cc3c2CC(F)(F)F)cc1OC` [Example 362, 2-(4-(2-(3,4-dimethoxyphenyl)-3-(2,2,2-trifluoroethyl)-1H-indol-5-yl)piperidin-1-yl)-1-(4-isopropylpiperazin-1-yl)ethan-1-one] registered an IC50 of 1150 nM.

As to `COc1ccc(-c2[nH]c3ccc(C4CCN(CC(=O)N5CCC(N6CCN(C)CC6)CC5)CC4)cc3c2CC(F)(F)F)cc1OC` [Example 363, 2-(4-(2-(3,4-dimethoxyphenyl)-3-(2,2,2-trifluoroethyl)-1H-indol-5-yl)piperidin-1-yl)-1-(4-(4-methylpiperazin-1-yl)piperidin-1-yl) ethan-1-one], 268 nM corresponded to half-maximal inhibition (IC50). For `COc1ccc(-c2[nH]c3ccc(C4CCN(CC(=O)N5CCC(N(C)C)CC5)CC4)cc3c2CC(F)(F)F)cc1OC` [Example 364, 2-(4-(2-(3,4-dimethoxyphenyl)-3-(2,2,2-trifluoroethyl)-1H-indol-5-yl)piperidin-1-yl)-1-(4-(dimethylamino)piperidin-1-yl)ethan-1-one] the value was 563 nM; for `COc1ccc(-c2[nH]c3ccc(C4CCN(CC(=O)N(C)CCCN(C)C)CC4)cc3c2CC(F)(F)F)cc1OC` [Example 365, 2-(4-(2-(3,4-dimethoxyphenyl)-3-(2,2,2-trifluoroethyl)-1H-indol-5-yl)piperidin-1-yl)-N-(3-(dimethylamino)propyl)-N-methylacetamide], 190 nM.

For the compound `COc1ccc(-c2[nH]c3ccc(C4CCN(CC(=O)N5CCN(c6ccncc6)CC5)CC4)cc3c2CC(F)(F)F)cc1OC` [Example 366, 2-(4-(2-(3,4-dimethoxyphenyl)-3-(2,2,2-trifluoroethyl)-1H-indol-5-yl)piperidin-1-yl)-1-(4-(pyridin-4-yl)piperazin-1-yl) ethan-1-one], the IC50 came out at 141 nM. For `COc1ccc(-c2[nH]c3ccc(C4CCN(CC(=O)N(C)CCN(C)C)CC4)cc3c2CC(F)(F)F)cc1OC` [Example 367, 2-(4-(2-(3,4-dimethoxyphenyl)-3-(2,2,2-trifluoroethyl)-1H-indol-5-yl)piperidin-1-yl)-N-(2-(dimethylamino)ethyl)-N-methylacetamide] the value was 441 nM.
